Assay results published in ChEMBL document CHEMBL1201862, “PubChem BioAssay data set” (2004).
Each block holds one compound with its values, some of them ahead of it. Activity calls are given as the source filed them.

How the values were obtained:
[1] = NIH-3T3 fibroblast cytotoxicity, dose response, cytotoxicity control, cell-based, fluorescence, Alamar Blue, secondary assay (AID 2327); type: functional;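 further: NIH-3T3 mouse fibroblasts cultured with fluconazole at 8 µg/mL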
[2] = C. albicans growth with fluconazole, confirmation, fluorescence, retest (AID 2467); type: functional, cell-based
[3] = biological target: T1, Interleukin-8 (Homo sapiens, UniProt P10145); assay: Dose Response confirmation of uHTS small molecule hits for cystic fibrosis induced NFkb Inhibitors in a PAF-induced IL8 counterscreen.; type: functional; conditions: read-out: IC50_Mean
T1 sequence (P10145 whole entry): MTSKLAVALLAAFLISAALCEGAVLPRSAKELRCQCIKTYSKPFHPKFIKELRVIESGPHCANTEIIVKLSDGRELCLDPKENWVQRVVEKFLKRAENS

[4] = biological target: Kallikrein-7 (Homo sapiens, UniProt P49862); assay: Fluorescence Intensity-based biochemical primary high throughput dose response assay to identify activators of kallikrein-7 (K7) zymogen.
[5] = biological target: T2, Aminopeptidase N (Plasmodium falciparum FcB1/Columbia, UniProt O96935); assay: P. falciparum M1AAP inhibitors, biochemical, fluorogenic H-Leu-NHMec substrate, 1536-well (AID 1445); design: species or system Plasmodium falciparum 3D7, 3D7
T2 sequence (O96935 whole entry): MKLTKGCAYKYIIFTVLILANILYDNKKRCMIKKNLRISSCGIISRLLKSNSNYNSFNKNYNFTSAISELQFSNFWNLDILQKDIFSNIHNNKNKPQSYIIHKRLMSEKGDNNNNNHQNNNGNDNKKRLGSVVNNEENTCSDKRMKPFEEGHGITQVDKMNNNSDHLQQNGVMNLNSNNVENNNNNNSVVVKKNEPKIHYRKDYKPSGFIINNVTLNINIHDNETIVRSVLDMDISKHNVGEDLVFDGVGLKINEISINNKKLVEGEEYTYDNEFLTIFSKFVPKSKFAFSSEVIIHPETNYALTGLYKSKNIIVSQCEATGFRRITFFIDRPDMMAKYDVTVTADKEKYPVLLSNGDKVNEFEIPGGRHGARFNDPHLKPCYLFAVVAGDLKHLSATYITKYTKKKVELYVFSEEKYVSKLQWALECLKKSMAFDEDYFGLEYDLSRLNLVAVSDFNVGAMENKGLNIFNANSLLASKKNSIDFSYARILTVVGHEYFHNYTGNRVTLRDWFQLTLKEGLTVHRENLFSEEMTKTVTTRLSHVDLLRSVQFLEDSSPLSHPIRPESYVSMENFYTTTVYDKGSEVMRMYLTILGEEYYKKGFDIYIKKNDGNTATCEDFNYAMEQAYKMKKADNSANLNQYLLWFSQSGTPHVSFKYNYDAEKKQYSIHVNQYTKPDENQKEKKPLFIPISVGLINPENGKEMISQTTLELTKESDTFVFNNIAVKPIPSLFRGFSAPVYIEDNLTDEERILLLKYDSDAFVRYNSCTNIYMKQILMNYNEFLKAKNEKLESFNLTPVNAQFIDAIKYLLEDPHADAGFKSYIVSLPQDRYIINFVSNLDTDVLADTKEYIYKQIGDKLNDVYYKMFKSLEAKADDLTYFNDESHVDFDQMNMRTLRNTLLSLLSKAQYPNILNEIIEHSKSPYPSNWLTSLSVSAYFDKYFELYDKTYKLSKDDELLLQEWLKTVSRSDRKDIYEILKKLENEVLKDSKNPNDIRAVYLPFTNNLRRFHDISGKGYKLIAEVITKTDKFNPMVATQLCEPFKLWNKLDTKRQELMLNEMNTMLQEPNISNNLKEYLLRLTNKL

[6] = biological target: Serine/threonine-protein phosphatase PP1-alpha catalytic subunit (Homo sapiens, UniProt P62136); assay: PP1 phosphatase inhibitors, dose response, biochemical, fluorescence (AID 2403);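 further: phosphatase turnover of OMFP into fluorescent 3-O-methylfluorescein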
[7] = biological target: T3, Serine/threonine-protein phosphatase (Homo sapiens, UniProt Q9BPW0); assay: Counterscreen for inhibitors of PP1: fluorescence-based biochemical high throughput dose response assay to identify inhibitors of Protein Phosphatase 5 (PP5). [Related pubchem assays: 2034 (Summary (PP5 inhibitors)), 1987 (PP5 inhibitors in singlate), 2235 (PP1 inhibitors in singlate)]
T3 sequence (Q9BPW0 whole entry): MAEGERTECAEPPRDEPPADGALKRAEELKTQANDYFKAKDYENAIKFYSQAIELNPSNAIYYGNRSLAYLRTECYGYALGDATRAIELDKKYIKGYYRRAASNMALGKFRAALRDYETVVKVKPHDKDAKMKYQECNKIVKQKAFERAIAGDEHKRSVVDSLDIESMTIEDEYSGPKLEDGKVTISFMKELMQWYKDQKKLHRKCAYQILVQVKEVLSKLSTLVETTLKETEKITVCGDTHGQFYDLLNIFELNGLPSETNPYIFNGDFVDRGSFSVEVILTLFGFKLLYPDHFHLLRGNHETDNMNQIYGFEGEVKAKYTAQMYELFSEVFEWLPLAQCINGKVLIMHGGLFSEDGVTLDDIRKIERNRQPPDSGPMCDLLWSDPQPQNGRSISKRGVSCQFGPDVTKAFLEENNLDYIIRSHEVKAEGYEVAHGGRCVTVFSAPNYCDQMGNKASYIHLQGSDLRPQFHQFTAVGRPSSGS

[8] = biological target: Endoplasmic reticulum aminopeptidase 1 (Homo sapiens, UniProt Q9NZ08); assay: ERAP1 aminopeptidase inhibitors, dose response, biochemical, cherry-pick, set 2, plate reader (AID 743314)
[9] = biological target: C-X-C chemokine receptor type 4 (Homo sapiens, UniProt P61073); assay: SAR analysis of small molecule antagonists of the CXCR6 receptor using a CXCR4 receptor luminescent beta-arrestin counterscreen.; type: functional
[10] = biological target: C-C chemokine receptor type 6 (Homo sapiens, UniProt P51684); assay: SAR analysis of small molecule antagonists of the CXCR6 receptor using a CCR6 receptor luminescent beta-arrestin counterscreen.; type: functional
[11] = biological target: fMet-Leu-Phe receptor (Homo sapiens, UniProt P21462); assay: FPR ligands, dose response (AID 519); type: functional
[12] = biological target: Large T antigen (Simian virus 40, UniProt P03070); type: functional, Betapolyomavirus macacae;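 further: Confirmatory-stage PubChem screen for compounds that inhibit SV40 T antigen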
[13] = biological target: Caspase-6 (Homo sapiens, UniProt P55212); assay: human caspase-6 inhibitors, dose response, biochemical, VEID-R110 fluorescence, cherry-pick (AID 720632)
[14] = test system: INS1; assay: beta cell apoptosis inhibitors, cytokine rescue, dose response, luminescence, retest (AID 449756); type: functional, cell-based; conditions: Rattus norvegicus;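 further: cell death triggered by IL-1 beta plus TNF-alpha plus IFN-gamma mixture; protective hits raise ATP signal compared with cytokine alone wells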
[15] = Artemis endonuclease inhibitor potency, dose response, biochemical, fluorescence intensity (AID 720701); type: functional;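 further: Artemis endonuclease enzyme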

Chain of Large T antigen (P03070 whole entry): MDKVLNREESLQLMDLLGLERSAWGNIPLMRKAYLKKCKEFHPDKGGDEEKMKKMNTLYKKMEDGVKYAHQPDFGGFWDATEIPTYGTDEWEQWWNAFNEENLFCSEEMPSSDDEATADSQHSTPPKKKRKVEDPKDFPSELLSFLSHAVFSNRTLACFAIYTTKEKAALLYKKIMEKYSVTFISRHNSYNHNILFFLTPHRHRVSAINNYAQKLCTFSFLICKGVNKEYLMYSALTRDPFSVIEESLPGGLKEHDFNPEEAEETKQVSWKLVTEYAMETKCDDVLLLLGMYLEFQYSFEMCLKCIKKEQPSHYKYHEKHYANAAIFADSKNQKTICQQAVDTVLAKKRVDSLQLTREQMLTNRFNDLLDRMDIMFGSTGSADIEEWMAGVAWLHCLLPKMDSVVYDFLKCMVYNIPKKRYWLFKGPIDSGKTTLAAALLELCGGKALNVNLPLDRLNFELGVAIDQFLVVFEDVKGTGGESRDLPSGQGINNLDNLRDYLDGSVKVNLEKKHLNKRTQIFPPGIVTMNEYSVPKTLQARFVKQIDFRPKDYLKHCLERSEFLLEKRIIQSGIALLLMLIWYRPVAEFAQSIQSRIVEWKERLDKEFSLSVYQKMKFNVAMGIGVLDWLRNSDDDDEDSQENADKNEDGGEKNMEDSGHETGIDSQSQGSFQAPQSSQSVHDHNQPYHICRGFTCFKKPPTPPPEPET
Chain of C-C chemokine receptor type 6 (P51684 whole entry): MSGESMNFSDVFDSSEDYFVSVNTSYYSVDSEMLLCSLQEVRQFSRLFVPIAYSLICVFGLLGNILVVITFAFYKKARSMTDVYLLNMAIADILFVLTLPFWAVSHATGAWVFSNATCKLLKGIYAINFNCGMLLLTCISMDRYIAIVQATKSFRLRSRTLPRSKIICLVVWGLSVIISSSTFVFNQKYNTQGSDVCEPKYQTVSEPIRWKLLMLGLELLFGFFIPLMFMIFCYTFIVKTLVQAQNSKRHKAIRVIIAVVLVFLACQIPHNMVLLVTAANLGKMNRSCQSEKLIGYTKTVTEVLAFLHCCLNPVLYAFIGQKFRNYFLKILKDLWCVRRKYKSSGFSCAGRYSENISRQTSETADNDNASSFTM
Chain of Caspase-6 (P55212 24-179 limits assumed): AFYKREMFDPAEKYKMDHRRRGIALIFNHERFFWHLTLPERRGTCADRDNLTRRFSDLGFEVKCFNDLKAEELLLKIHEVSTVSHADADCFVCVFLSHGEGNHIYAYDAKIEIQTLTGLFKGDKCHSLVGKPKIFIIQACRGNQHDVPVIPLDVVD
Chain of Caspase-6 (P55212 194-293 limits assumed): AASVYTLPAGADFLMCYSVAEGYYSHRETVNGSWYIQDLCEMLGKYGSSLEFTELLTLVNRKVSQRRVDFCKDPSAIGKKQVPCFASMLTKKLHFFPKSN
Chain of Endoplasmic reticulum aminopeptidase 1 (Q9NZ08 whole entry): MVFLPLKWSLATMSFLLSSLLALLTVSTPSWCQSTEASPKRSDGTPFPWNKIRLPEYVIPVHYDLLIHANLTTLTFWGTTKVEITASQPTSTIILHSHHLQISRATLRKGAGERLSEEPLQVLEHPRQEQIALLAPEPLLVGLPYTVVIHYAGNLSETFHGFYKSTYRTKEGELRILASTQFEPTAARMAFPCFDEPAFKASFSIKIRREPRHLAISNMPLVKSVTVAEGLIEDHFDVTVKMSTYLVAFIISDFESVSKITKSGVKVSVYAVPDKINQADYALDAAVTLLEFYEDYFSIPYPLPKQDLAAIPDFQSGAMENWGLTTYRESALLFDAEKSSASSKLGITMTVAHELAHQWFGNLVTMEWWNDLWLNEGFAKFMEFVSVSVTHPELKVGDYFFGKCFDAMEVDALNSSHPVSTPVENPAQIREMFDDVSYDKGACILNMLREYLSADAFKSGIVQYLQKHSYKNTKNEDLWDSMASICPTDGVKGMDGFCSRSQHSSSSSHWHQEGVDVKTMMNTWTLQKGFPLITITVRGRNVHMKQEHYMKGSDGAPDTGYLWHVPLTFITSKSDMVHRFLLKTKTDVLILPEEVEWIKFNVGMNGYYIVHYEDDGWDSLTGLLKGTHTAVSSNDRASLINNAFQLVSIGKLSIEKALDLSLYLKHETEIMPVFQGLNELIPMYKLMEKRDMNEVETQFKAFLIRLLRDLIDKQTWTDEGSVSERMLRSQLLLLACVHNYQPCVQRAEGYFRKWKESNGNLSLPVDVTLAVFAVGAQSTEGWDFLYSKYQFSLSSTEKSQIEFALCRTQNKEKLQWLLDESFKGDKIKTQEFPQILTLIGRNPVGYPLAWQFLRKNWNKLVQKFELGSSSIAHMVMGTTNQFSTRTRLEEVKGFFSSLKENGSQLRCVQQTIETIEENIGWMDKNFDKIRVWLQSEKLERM
Chain of Serine/threonine-protein phosphatase PP1-alpha catalytic subunit (P62136 whole entry): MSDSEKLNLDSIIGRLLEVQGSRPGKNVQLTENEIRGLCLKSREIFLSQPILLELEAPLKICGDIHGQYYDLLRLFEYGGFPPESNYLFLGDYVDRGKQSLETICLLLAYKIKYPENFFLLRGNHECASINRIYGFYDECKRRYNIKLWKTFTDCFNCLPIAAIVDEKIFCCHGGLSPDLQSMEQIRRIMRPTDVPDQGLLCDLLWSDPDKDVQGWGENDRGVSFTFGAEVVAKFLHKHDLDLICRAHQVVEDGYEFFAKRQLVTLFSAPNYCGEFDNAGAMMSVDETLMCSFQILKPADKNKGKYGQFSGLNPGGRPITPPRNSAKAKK
Chain of fMet-Leu-Phe receptor (P21462 whole entry): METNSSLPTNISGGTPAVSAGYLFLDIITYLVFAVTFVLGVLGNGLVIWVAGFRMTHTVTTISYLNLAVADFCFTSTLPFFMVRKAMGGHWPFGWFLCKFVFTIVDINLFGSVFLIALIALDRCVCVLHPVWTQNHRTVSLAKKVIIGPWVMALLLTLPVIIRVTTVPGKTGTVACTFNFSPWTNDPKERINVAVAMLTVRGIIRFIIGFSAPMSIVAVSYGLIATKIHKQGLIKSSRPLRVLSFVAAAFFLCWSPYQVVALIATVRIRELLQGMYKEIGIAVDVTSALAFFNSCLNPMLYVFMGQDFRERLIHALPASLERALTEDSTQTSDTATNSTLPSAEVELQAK
Chain of Kallikrein-7 (P49862 whole entry): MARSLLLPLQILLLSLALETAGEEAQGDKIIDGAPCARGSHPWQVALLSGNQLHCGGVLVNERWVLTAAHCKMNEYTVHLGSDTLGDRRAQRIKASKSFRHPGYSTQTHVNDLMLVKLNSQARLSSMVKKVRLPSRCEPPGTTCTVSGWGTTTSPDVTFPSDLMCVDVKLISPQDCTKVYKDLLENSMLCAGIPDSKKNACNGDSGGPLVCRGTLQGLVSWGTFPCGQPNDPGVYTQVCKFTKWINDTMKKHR
Chain of C-X-C chemokine receptor type 4 (P61073 whole entry): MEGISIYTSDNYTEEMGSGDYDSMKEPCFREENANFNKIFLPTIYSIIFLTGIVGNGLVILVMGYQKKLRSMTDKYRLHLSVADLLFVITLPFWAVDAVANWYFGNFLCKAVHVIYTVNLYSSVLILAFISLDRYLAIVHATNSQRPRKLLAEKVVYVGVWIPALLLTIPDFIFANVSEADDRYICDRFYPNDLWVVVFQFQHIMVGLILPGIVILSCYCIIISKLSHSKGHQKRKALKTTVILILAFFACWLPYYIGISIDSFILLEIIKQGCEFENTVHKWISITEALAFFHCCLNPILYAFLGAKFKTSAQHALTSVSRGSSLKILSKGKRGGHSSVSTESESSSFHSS

SMILES: COc1ccc(-c2cc(=O)oc3cc(OC(=O)C4CCCCC4)c(Cl)cc23)cc1
EC50 [1]: 34.6 µM (active)
EC50 [2]: 1.9 µM (active)
IC50 [3]: 4.55 µM (active)
EC50 [4]: > 69.5 µM (inactive)

SMILES: CCCCCCC[C@H](N)[C@H](O)C(=O)N(C)[C@@H](CC[S+](C)[O-])C(=O)N[C@@H](Cc1ccc(O)cc1)C(=O)N[C@@H](Cc1ccc(O)cc1)C(=O)O (stereo not given in full)
IC50 [5]: 16.8 µM (active)
IC50 [6]: 0.227 µM (active)
IC50 [7]: 0.578 µM (active)
AC50 [8]: 8.53 µM (active)

SMILES: COc1cc(C(=O)NC2CC3CCCC(C2)N3CC(=O)Nc2ccccc2)cc(OC)c1OC (stereo not given)
IC50 [9]: > 79 µM (inactive)
IC50 [10]: > 79 µM (inactive)

Ki [11]: > 66.7 µM (inactive)
SMILES: Cc1cc(SCC(N)=O)nc(SCC(=O)c2ccccc2)n1

IC50 [12]: 76.9 µM (active)
AC50 [13]: 39.2 µM (active)
SMILES: COc1ccc(Br)cc1C1CC(=O)N2CN(C)CSC2=C1C#N (stereo not given)

SMILES: c1ccc(-c2nnc3sc(-c4csc5c4CCCC5)nn23)cc1
AC50 [14]: 64.1 µM (active)
IC50 [15]: > 20 µM (inactive)
